pIC50: −log10 of the molar value. Where “and” joins values, the source holds several entries; their conditions need not be identical. Equal values may be shown once. Where only a bound is given, the exact number is not on record here.

Sequence of Protein Wnt-3a (P27467 whole entry): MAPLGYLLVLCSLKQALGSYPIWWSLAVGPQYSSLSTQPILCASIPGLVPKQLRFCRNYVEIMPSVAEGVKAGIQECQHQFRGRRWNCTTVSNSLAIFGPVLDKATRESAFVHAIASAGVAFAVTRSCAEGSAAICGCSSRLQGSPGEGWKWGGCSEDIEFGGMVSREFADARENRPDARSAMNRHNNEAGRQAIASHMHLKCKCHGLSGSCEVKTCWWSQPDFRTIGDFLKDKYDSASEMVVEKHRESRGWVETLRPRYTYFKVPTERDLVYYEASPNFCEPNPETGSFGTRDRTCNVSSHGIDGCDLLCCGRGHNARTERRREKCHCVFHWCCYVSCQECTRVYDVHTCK

The target in this test is Protein Wnt-3a (Mus musculus, UniProt P27467). As to the kind of experiment: Dual-Cell beta-Catenin Reporter Assay. On the procedure:
Mouse L cells transfected to constitutively produce biologically active murine Wnt-3a, referred to as L-Wnt cells, were purchased from the American Type Culture Collection, ATCC, Manassas, Va. (ATCC). These cells were cultured in DMEM supplemented with 10% FCS (Gibco/Invitrogen, Carlsbad, Calif.), 1% geneticin and 1% sodium pyruvate (Sigma) at 37° C. with 5% CO2. The cells were seeded into 96 well plates and treated with serial dilutions of compound diluted to 0.1% DMSO concentration. After 24 hours, cell supernatants were transferred to a 96 well plate previously seeded with Leading Light Wnt Reporter Cells, stably transfected with a luciferase gene under control of Wnt pathway response elements. After a further 24 hours, cells are treated with One-glo luciferase assay system (Promega, Madison, Wis.) and the luminescent signal read by envision.
(In general: In a reporter assay the amount or activity of a reporter protein is the signal.)
As to `Cc1cc(-c2nc(C)nc3c2ccn3CC(=O)Nc2ccc(-c3cnccn3)cn2)ccn1` [US10202375, Example 10], the pIC50 was > 9.00 and 9.49.
For `Cc1cc(-c2ccnc3c2cnn3CC(=O)Nc2ccc(-c3cnccn3)nc2)ccn1` [US10202375, Example 15], the pIC50 is 8.52.
For `Cc1cc(-c2nccc3c2ncn3CC(=O)Nc2ccc(-c3cnccn3)cn2)ccn1` [US10202375, Example 20] the value was 8.52.

Broadly, the pIC50 is the IC50 on a negative log10 scale, so that one unit is a factor of ten. A low value points to a large IC50.

(Values after BindingDB's records for patent US10202375 (Redx Pharma PLC, 2019).)
